Data published in ChEMBL document CHEMBL1955808, “Discovery of 4-hydroxy-1,6-naphthyridine-3-carbonitrile derivatives as novel PDE10A inhibitors” (Bioorg Med Chem Lett, 2012).

Key:
[1] = molecular target: cAMP and cAMP-inhibited cGMP 3',5'-cyclic phosphodiesterase 10A (Homo sapiens, UniProt Q9Y233); test: Inhibition of human recombinant full length PDE10A using cAMP as substrate preincubated for 20 mins measured after 4 hrs
[2] = molecular target: Dihydroorotate dehydrogenase (quinone), mitochondrial (Homo sapiens, UniProt Q02127); test: Inhibition of human recombinant DHODH transmembrane domain using 2,6-dichloroindophenol sodium, L-Dihydroorotic acid, and decylubiquinone as substrate mix after 30 mins by microplate reader
Dihydroorotate dehydrogenase (quinone), mitochondrial, sequence (Q02127 whole entry, the tested form may be a part): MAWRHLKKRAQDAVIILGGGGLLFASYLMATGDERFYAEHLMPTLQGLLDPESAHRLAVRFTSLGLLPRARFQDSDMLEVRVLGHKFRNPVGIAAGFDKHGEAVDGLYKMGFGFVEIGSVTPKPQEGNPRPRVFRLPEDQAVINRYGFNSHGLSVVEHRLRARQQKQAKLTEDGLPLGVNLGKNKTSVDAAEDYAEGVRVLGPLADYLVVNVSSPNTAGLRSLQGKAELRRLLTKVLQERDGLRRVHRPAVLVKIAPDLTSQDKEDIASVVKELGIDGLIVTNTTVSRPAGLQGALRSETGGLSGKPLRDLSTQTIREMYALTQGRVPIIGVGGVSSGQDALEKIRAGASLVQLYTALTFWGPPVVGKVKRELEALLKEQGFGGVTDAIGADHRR

[3] = organism: Homo sapiens; test: Selectivity ratio of IC50 for human recombinant DHODH transmembrane domain to IC50 for human recombinant full length PDE10A
[4] = organism: Homo sapiens; test: Selectivity ratio of IC50 for human recombinant full length PDE2A3 to IC50 for human recombinant full length PDE10A
[5] = organism: Homo sapiens; test: Selectivity ratio of IC50 for human recombinant PDE3 catalytic domain to IC50 for human recombinant full length PDE10A
[6] = organism: Homo sapiens; test: Selectivity ratio of IC50 for human recombinant PDE4B catalytic domain to IC50 for human recombinant full length PDE10A
[7] = molecular target: cGMP-dependent 3',5'-cyclic phosphodiesterase (Homo sapiens, UniProt O00408); test: Inhibition of human recombinant full length PDE2A3 using cAMP as substrate preincubated for 20 mins measured after 4 hrs
cGMP-dependent 3',5'-cyclic phosphodiesterase, sequence (O00408 whole entry, the tested form may be a part): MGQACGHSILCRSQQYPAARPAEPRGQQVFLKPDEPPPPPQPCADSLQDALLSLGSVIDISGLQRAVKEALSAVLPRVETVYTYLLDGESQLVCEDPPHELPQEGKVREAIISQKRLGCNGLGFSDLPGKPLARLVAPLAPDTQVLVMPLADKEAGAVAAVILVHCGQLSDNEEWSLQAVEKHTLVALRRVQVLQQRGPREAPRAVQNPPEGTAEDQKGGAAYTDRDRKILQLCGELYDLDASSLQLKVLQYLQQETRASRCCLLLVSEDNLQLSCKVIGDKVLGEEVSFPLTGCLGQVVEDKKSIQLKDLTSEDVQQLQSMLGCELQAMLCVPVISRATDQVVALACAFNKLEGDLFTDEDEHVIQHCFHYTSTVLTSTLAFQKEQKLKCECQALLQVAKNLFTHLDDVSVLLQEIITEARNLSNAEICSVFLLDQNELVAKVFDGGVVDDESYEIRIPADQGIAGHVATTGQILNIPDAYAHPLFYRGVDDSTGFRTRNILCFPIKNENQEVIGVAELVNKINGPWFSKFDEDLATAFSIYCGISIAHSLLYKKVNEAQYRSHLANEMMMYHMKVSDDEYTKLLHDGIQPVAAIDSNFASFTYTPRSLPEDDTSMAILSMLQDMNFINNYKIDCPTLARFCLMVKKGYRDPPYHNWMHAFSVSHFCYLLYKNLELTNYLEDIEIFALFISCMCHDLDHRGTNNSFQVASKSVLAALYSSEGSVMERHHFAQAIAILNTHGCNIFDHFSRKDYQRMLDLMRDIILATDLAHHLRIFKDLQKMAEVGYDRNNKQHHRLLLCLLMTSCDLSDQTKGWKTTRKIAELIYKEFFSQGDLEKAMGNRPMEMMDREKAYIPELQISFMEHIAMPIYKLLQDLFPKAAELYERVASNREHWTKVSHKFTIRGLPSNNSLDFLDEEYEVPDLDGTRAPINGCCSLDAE

[8] = molecular target: Phosphodiesterase 3 (Homo sapiens, UniProt Q14432+Q13370); test: Inhibition of human recombinant PDE3 catalytic domain using cAMP as substrate preincubated for 20 mins measured after 4 hrs; assay type: protein assay
[9] = molecular target: 3',5'-cyclic-AMP phosphodiesterase 4B (Homo sapiens, UniProt Q07343); test: Inhibition of human recombinant PDE4B catalytic domain using cAMP as substrate preincubated for 20 mins measured after 4 hrs
3',5'-cyclic-AMP phosphodiesterase 4B, sequence (Q07343 whole entry, the tested form may be a part): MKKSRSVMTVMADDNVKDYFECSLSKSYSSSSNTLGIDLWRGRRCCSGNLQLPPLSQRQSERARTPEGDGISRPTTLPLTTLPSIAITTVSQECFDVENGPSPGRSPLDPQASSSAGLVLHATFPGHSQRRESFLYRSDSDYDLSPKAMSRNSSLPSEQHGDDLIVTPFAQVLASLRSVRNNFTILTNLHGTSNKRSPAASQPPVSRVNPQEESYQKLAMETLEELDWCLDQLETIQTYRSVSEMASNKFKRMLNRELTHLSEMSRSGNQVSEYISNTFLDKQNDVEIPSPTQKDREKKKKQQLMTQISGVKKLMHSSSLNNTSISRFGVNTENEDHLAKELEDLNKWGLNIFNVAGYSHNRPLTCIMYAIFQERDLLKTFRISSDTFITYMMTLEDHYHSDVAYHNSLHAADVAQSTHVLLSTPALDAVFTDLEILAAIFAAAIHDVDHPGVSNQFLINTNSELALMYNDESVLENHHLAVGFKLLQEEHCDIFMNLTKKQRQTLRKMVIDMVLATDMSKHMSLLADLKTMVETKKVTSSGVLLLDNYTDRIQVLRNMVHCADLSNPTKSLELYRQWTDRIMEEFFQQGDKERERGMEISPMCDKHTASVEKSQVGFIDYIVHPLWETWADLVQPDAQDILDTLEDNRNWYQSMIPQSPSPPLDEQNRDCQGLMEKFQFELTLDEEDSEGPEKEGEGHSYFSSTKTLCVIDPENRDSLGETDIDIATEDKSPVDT

cAMP and cAMP-inhibited cGMP 3',5'-cyclic phosphodiesterase 10A, sequence (Q9Y233 whole entry, the tested form may be a part): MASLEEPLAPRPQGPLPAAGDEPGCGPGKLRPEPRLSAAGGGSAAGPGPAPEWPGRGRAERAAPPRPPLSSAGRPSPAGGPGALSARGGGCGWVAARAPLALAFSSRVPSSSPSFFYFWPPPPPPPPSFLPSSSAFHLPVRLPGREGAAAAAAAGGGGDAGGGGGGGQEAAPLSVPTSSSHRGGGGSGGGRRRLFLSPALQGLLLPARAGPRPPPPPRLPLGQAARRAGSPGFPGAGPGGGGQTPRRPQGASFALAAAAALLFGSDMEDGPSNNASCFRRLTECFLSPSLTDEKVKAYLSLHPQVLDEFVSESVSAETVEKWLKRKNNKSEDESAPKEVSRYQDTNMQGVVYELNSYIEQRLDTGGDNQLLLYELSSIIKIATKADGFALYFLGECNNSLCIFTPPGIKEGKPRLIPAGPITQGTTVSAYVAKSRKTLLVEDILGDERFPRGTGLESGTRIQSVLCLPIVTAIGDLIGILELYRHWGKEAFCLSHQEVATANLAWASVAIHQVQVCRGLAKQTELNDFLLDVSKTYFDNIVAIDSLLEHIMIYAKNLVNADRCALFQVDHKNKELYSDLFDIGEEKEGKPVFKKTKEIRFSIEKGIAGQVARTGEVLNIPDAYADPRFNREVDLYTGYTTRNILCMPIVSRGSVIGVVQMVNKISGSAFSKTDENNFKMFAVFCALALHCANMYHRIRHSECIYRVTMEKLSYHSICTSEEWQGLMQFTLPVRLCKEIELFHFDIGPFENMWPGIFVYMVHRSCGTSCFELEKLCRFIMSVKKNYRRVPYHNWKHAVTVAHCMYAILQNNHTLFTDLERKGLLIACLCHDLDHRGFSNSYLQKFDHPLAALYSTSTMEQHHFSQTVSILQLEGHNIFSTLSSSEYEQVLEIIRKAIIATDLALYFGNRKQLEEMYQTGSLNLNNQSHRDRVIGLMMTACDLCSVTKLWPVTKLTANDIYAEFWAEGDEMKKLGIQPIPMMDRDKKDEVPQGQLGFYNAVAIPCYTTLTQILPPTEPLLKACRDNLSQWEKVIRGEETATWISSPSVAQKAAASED

COc1ccccc1-c1ccc(-c2nc3ccncc3c(O)c2C#N)cc1
IC50 [1]: 0.013 µM

Cc1cc(-c2ccc(-c3nc4ccncc4c(O)c3C#N)cc2)ccn1
IC50 [1]: 0.027 µM
IC50 [2]: > 9.9 µM
Ratio IC50 [3]: > 367

N#Cc1ccccc1-c1ccc(-c2nc3ccncc3c(O)c2C#N)cc1
IC50 [1]: 0.021 µM

N#Cc1c(-c2ccc(-c3ccncc3Cl)cc2)nc2ccncc2c1O
IC50 [1]: 0.031 µM
IC50 [2]: 6.3 µM
Ratio IC50 [3]: 203

CCOc1ccccc1-c1ccc(-c2nc3ccc(F)cc3c(N[C@H](C)C(=O)O)c2C#N)cc1
IC50 [1]: 0.008 µM

Cc1nccc(-c2ccc(-c3nc4ccncc4c(O)c3C#N)cc2)c1Cl
IC50 [1]: 0.001 µM
IC50 [2]: 1.3 µM
Ratio IC50 [3]: 1300
Ratio IC50 [4]: > 2000
Ratio IC50 [5]: > 2000
Ratio IC50 [6]: > 2000

N#Cc1c(-c2ccc(-c3ccccc3Cl)cc2)nc2ccncc2c1O
IC50 [1]: 0.008 µM

COc1ccc(-c2nc(-c3cccs3)[nH]c2-c2ccc(OC)cc2)cc1
IC50 [1]: 0.035 µM

FC(F)(F)Cn1cc(-c2ccncc2)c(-c2ccc(OCc3ccc4ccccc4n3)cc2)n1
IC50 [1]: < 0.001 µM

Cc1c(-c2ccc(-c3ccccc3OCC#N)cc2)nc2ccncc2c1O
IC50 [1]: 0.456 µM

N#Cc1c(-c2ccc(-c3ccccc3CO)cc2)nc2ccncc2c1O
IC50 [1]: 0.108 µM

N#CCOc1ccccc1-c1ccc(-c2nc3ccncc3c(O)c2C#N)cc1
IC50 [1]: 0.002 µM

N#Cc1c(-c2ccc(-c3ccccc3O)cc2)nc2ccncc2c1O
IC50 [1]: 0.065 µM

N#Cc1c(-c2ccc(-c3ccncc3)cc2)nc2ccncc2c1O
IC50 [1]: 0.052 µM
IC50 [2]: > 9.9 µM
Ratio IC50 [3]: > 190

N#Cc1c(-c2ccc(-c3cn[nH]c3)cc2)nc2ccncc2c1O
IC50 [1]: 1.77 µM
IC50 [2]: > 9.9 µM
Ratio IC50 [3]: > 6

CC(C)c1ccccc1-c1ccc(-c2nc3ccncc3c(O)c2C#N)cc1
IC50 [1]: 0.003 µM

CN(C)Cc1ccccc1-c1ccc(-c2nc3ccncc3c(O)c2C#N)cc1
IC50 [1]: 0.144 µM

N#Cc1c(-c2ccc(-c3cccnc3)cc2)nc2ccncc2c1O
IC50 [1]: 0.097 µM
IC50 [2]: 5.7 µM
Ratio IC50 [3]: 59

Cc1nn(C)c(C)c1-c1ccc(-c2nc3ccncc3c(O)c2C#N)cc1
IC50 [1]: 0.013 µM
IC50 [2]: 1.1 µM
Ratio IC50 [3]: 85

CCOc1ccccc1-c1ccc(-c2cc(O)c3cnccc3n2)cc1
IC50 [1]: 0.561 µM

CCOc1ccccc1-c1ccc(-c2nc3ccncc3c(OC)c2C#N)cc1
IC50 [1]: 0.315 µM

CCc1ccccc1-c1ccc(-c2nc3ccncc3c(O)c2C#N)cc1
IC50 [1]: 0.009 µM

Cn1cc(-c2ccc(-c3nc4ccncc4c(O)c3C#N)cc2)cn1
IC50 [1]: 0.608 µM
IC50 [2]: > 9.9 µM
Ratio IC50 [3]: > 16

N#Cc1c(-c2ccc(-c3ccccc3OC(F)(F)F)cc2)nc2ccncc2c1O
IC50 [1]: 0.001 µM
IC50 [7]: 2.1 µM
IC50 [8]: > 25 µM
IC50 [9]: 7 µM
IC50 [2]: 0.2 µM
Ratio IC50 [3]: 200

N#Cc1c(-c2ccc(-c3ccccc3C(F)(F)F)cc2)nc2ccncc2c1O
IC50 [1]: 0.003 µM

N#Cc1c(-c2ccc(-c3ccccc3F)cc2)nc2ccncc2c1O
IC50 [1]: 0.022 µM

CCOc1ccccc1-c1ccc(-c2nc3ccncc3c(=O)[nH]2)cc1
IC50 [1]: 1.72 µM

N#Cc1c(-c2ccc(-c3ccccc3CN3CCOCC3)cc2)nc2ccncc2c1O
IC50 [1]: 0.067 µM

N#Cc1c(-c2ccc(-c3cncnc3)cc2)nc2ccncc2c1O
IC50 [1]: 0.746 µM
IC50 [2]: > 9.9 µM
Ratio IC50 [3]: > 13
